Laboratory results published in EPA's ToxRefDB 2.

Assays:
rabbit [1] = settings: Prenatal developmental toxicity study, himalayan, Oral, Gavage/Intubation, dose end: 28 GD
dog [2] = settings: Subchronic oral toxicity in nonrodent, beagle, Feed, dose end: 106 day, group: systemic
mouse [3] = settings: Subchronic oral toxicity in rodents, b6c3f1, Feed, dose end: 90 day, group: systemic
mouse [4] = settings: Carcinogenicity, b6c3f1, Oral, Feed, dose end: 24 month, group: systemic
rat [5] = settings: Multigenerational reproductive toxicity study, sprague dawley, Oral, Feed, dose end: 2 generation
rat [6] = settings: Subchronic oral toxicity in rodents, wistar, Feed, dose end: 90 day, group: systemic
rat [7] = settings: Prenatal developmental toxicity study, wistar, Oral, Gavage/Intubation, dose end: 19 GD
dog [8] = settings: Chronic toxicity, beagle, Oral, Feed, dose end: 52 week, group: systemic
rat [9] = settings: Combined chronic toxicity/carcinogenicity; wistar; Oral; Feed; dose end: 2 year; group: systemic; systemic / pathology microscopic / liver / cytoplasmic alteration + systemic / pathology microscopic / liver / hypertrophy + systemic / …
rat [10] = settings: Sub-acute repeat dose toxicity, sprague dawley, Oral, Gavage/Intubation, dose end: 7 day, group: systemic
primate [11] = settings: Sub-acute repeat dose toxicity; Oral; Gavage/Intubation; dose end: 28 day; group: systemic; systemic / clinical chemistry / cholesterol / cholesterol, direct ldl + systemic / hematology / erythrocyte (rbc) count differential / …
rat [12] = settings: Sub-acute repeat dose toxicity, sprague dawley, Oral, Gavage/Intubation, dose end: 29 day, group: systemic
primate [13] = settings: Sub-acute repeat dose toxicity, Oral, Gavage/Intubation, dose end: 5 day, group: systemic
mouse [14] = settings: Carcinogenicity, other, Oral, Feed, dose end: 18 month, group: systemic
rat [15] = settings: Combined chronic toxicity/carcinogenicity; sprague dawley; Oral; Feed; dose end: 104 week; group: systemic; systemic / clinical chemistry / alanine aminotransferase (alt/sgpt) / alanine aminotransferase (alt/sgpt) + systemic / clinical chemistry / …
dog [16] = settings: Chronic toxicity, beagle, Oral, Capsule, dose end: 52 week, group: systemic
dog [17] = settings: Subchronic oral toxicity in nonrodent, beagle, Capsule, dose end: 26 week, group: systemic, systemic / in life observation / body weight / body weight gain
rabbit [18] = settings: Prenatal developmental toxicity study, other, Oral, Gavage/Intubation, dose end: 19 GD
rat [19] = settings: Subchronic oral toxicity in rodents, other, Feed, dose end: 91 day
[20] = group: developmental, systemic / in life observation / body weight / fetal weight
[21] = group: developmental, systemic / in life observation / body weight / fetal weight + developmental / developmental malformation / bone / full supernumerary + …
[22] = group: maternal, systemic / in life observation / body weight / body weight gain + systemic / in life observation / clinical signs / defecation + systemic / …
[23] = systemic / clinical chemistry / [other] / [other] + systemic / clinical chemistry / epoxide hydrolase / epoxide hydrolase + systemic / …
[24] = systemic / clinical chemistry / epoxide hydrolase / epoxide hydrolase + systemic / pathology microscopic / prostate / secretory fluid
[25] = systemic / pathology microscopic / adrenal gland / fatty change + systemic / pathology microscopic / adrenal gland / hypertrophy
[26] = systemic / pathology microscopic / liver / hypertrophy
[27] = systemic / pathology microscopic / liver / degeneration + systemic / pathology microscopic / liver / fatty change + systemic / pathology …
[28] = systemic / pathology microscopic / lymph node / hemorrhage
[29] = group: offspring, systemic / in life observation / body weight / offspring (pup) weight
[30] = group: parental, systemic / organ weight / liver / absolute + systemic / organ weight / liver / relative to body weight + systemic / organ weight / thyroid …
[31] = group: reproductive, reproductive / reproductive performance / dystocia / dystocia
[32] = systemic / clinical chemistry / triiodothyronine (t3) / triiodothyronine (t3), free
[33] = group: developmental, developmental / developmental malformation / bone / enlarged fontanel + developmental / developmental malformation / bone / incomplete …
[34] = group: maternal, reproductive / reproductive performance / resorptions / resorptions + systemic / in life observation / body weight / body weight + systemic…
[35] = systemic / organ weight / prostate / nos
[36] = systemic / organ weight / spleen / nos
[37] = systemic / clinical chemistry / aspartate aminotransferase (ast/sgot) / aspartate aminotransferase (ast/sgot) + systemic / clinical …
[38] = systemic / clinical chemistry / gamma glutamyl transferase (ggt) / gamma glutamyl transferase (ggt) + systemic / pathology microscopic / …
[39] = systemic / clinical chemistry / cytochrome p450, nos / cytochrome p450, nos + systemic / in life observation / clinical signs / alopecia + …
[40] = systemic / in life observation / clinical signs / salivation + systemic / organ weight / liver / absolute + systemic / pathology microscopic…
[41] = systemic / hematology / blood clotting / blood clotting - activated partial thromboplastin time + systemic / hematology / fibrinogen / …
[42] = systemic / hematology / blood clotting / blood clotting - activated partial thromboplastin time + systemic / in life observation / food …
[43] = systemic / pathology microscopic / lung / adenoma + systemic / pathology microscopic / lung / carcinoma + systemic / in life observation / …
[44] = systemic / in life observation / body weight / body weight gain + systemic / in life observation / food consumption / food consumption + …
[45] = group: developmental, developmental / developmental malformation / bone / hypoplasia + developmental / developmental malformation / trunk / spina bifida
[46] = group: maternal, systemic / in life observation / body weight / body weight gain
[47] = group: cholinesterase, cholinesterase / cholinesterase / cholinesterase / cholinesterase (che)
[48] = group: systemic, systemic / clinical chemistry / alkaline phosphatase (alp/alk) / alkaline phosphatase (alp/alk) + systemic / in life observation / clinical …

With `N#CN=C1SCCN1Cc1ccc(Cl)nc1` [Thiacloprid] the LEL (rabbit [1]; [20]) was 10 mg/kg/day, the LOAEL (rabbit [1]; [20]) was 10 mg/kg/day and the NEL (rabbit [1]; [21]) was 2 mg/kg/day. It also gave an NOAEL (rabbit [1]; [21]) of 2 mg/kg/day, an LEL (rabbit [1]; [22]) of 10 mg/kg/day and an LOAEL (rabbit [1]; [22]) of 10 mg/kg/day. The NEL (rabbit [1]; [22]) was 2 mg/kg/day, the NOAEL (rabbit [1]; [22]) was 2 mg/kg/day and the LOAEL (dog [2]; [23]) was 34.7 mg/kg/day. The NOAEL (dog [2]; [23]) was 8.9 mg/kg/day, the LEL (dog [2]; [24]) was 8.5 mg/kg/day and the NEL (dog [2]; [24]) was less than 8.5 mg/kg/day. For the same compound, the LOAEL (mouse [3]; [25]) was 27.2 mg/kg/day, the NOAEL (mouse [3]; [25]) was less than 27.2 mg/kg/day and the LEL (mouse [3]; [26]) was 19.9 mg/kg/day. The NEL (mouse [3]; [26]) was less than 19.9 mg/kg/day, the LOAEL (mouse [4]; [27]) was 234 mg/kg/day and the NOAEL (mouse [4]; [27]) was 5.7 mg/kg/day. For the same compound, the LEL (mouse [4]; [28]) was 5.7 mg/kg/day, the NEL (mouse [4]; [28]) was less than 5.7 mg/kg/day and the LEL (rat [5]; [29]) was 21 mg/kg/day. For the same compound, the LOAEL (rat [5]; [29]) was 21 mg/kg/day, the NEL (rat [5]; [29]) was 3.5 mg/kg/day and the NOAEL (rat [5]; [29]) was 3.5 mg/kg/day. For the same compound, the LOAEL (rat [5]; [30]) was 21 mg/kg/day, the NEL (rat [5]; [30]) was 3.5 mg/kg/day and the NOAEL (rat [5]; [30]) was 3.5 mg/kg/day. The LEL (rat [5]; group: parental, systemic / organ weight / liver / absolute + systemic / organ weight / liver / relative to body weight + systemic / pathology microscopic / …) was 21 mg/kg/day, the LEL (rat [5]; [31]) was 26 mg/kg/day and the LOAEL (rat [5]; [31]) was 26 mg/kg/day. It also gave an NEL (rat [5]; [31]) of 4.2 mg/kg/day, an NOAEL (rat [5]; [31]) of 4.2 mg/kg/day and an LEL (rat [6]; [32]) of 1.9 mg/kg/day. The NEL (rat [6]; [32]) was less than 1.9 mg/kg/day, the LOAEL (rat [6]; systemic / in life observation / body weight / body weight) was 28.6 mg/kg/day and the NOAEL (rat [6]; systemic / in life observation / body weight / body weight + systemic / clinical chemistry / cholesterol / cholesterol + systemic / clinical…) was 7.3 mg/kg/day. It also gave an LEL (rat [7]; [33]) of 50 mg/kg/day, an LOAEL (rat [7]; [33]) of 50 mg/kg/day and an NEL (rat [7]; [33]) of 10 mg/kg/day. The NOAEL (rat [7]; [33]) was 10 mg/kg/day, the LEL (rat [7]; [34]) was 50 mg/kg/day and the LOAEL (rat [7]; [34]) was 50 mg/kg/day. For the same compound, the NEL (rat [7]; [34]) was 10 mg/kg/day, the NOAEL (rat [7]; [34]) was 10 mg/kg/day and the LOAEL (dog [8]; [35]) was greater than 32.2 mg/kg/day. It also gave an NOAEL (dog [8]; [35]) of no less than 32.2 mg/kg/day, an LEL (dog [8]; [36]) of 1.39 mg/kg/day and an NEL (dog [8]; [36]) of less than 1.39 mg/kg/day. For the same compound, the LEL (rat [9]) was 2.5 mg/kg/day, the LOAEL (rat [9]) was 2.5 mg/kg/day and the NEL (rat [9]) was 1.2 mg/kg/day. The NOAEL (rat [9]) was 1.2 mg/kg/day.
`CC[C@@H]1C[C@H](N(Cc2cc(C(F)(F)F)cc(C(F)(F)F)c2)C(C)=O)c2cc(C(F)(F)F)ccc2N1C(=O)OC(C)C` showed an LOAEL (rat [10]; [37]) greater than 700 mg/kg/day, an NOAEL (rat [10]; [37]) of no less than 700 mg/kg/day and an LEL (rat [10]; [38]) of 10 mg/kg/day. It also gave an NEL (rat [10]; [38]) of less than 10 mg/kg/day, an LEL (primate [11]) of 10 mg/kg/day and an LOAEL (primate [11]) greater than 140 mg/kg/day. The NEL (primate [11]) was less than 10 mg/kg/day, the NOAEL (primate [11]) was no less than 140 mg/kg/day and the LOAEL (rat [12]; [39]) was greater than 125 mg/kg/day. For the same compound, the NOAEL (rat [12]; [39]) was no less than 125 mg/kg/day, the LEL (rat [12]; [40]) was 2 mg/kg/day and the NEL (rat [12]; [40]) was less than 2 mg/kg/day. For the same compound, the LOAEL (primate [13]; [41]) was greater than 140 mg/kg/day, the NOAEL (primate [13]; [41]) was no less than 140 mg/kg/day and the LEL (primate [13]; [42]) was 10 mg/kg/day. The NEL (primate [13]; [42]) was less than 10 mg/kg/day.
Work on `CCOC(=O)NCCOc1ccc(Oc2ccccc2)cc1` [Fenoxycarb] yielded an LEL (mouse [14]; systemic / pathology gross / spleen / enlarged) of 5.75 mg/kg/day, an NEL (mouse [14]; systemic / pathology gross / spleen / enlarged + systemic / pathology microscopic / liver / carcinoma + systemic / pathology microscopic / …) of 1.1 mg/kg/day and an LOAEL (mouse [14]; [43]) of 51.5 mg/kg/day. For the same compound, the NOAEL (mouse [14]; [43]) was 5.33 mg/kg/day, the LEL (rat [15]) was 24.7 mg/kg/day and the LOAEL (rat [15]) was 24.7 mg/kg/day. The NEL (rat [15]) was 8.1 mg/kg/day, the NOAEL (rat [15]) was 8.1 mg/kg/day and the LEL (dog [16]; systemic / clinical chemistry / phosphorus / phosphorus) was 80 mg/kg/day. The NOAEL (dog [16]; systemic / in life observation / body weight / body weight gain + systemic / clinical chemistry / phosphorus / phosphorus + systemic / organ…) was 80 mg/kg/day, the LOAEL (dog [16]; [44]) was 260 mg/kg/day and the NEL (dog [16]; [44]) was 25 mg/kg/day. It also gave an LEL (dog [17]) of 500 mg/kg/day, an LOAEL (dog [17]) of 500 mg/kg/day and an NEL (dog [17]) of 150 mg/kg/day. The NOAEL (dog [17]) was 150 mg/kg/day, the LEL (rabbit [18]; [45]) was 300 mg/kg/day and the LOAEL (rabbit [18]; [45]) was 300 mg/kg/day. For the same compound, the NEL (rabbit [18]; [45]) was 200 mg/kg/day, the NOAEL (rabbit [18]; [45]) was 200 mg/kg/day and the LEL (rabbit [18]; [46]) was 200 mg/kg/day. For the same compound, the LOAEL (rabbit [18]; [46]) was 200 mg/kg/day, the NEL (rabbit [18]; [46]) was 100 mg/kg/day and the NOAEL (rabbit [18]; [46]) was 100 mg/kg/day. It also gave an LEL (rat [19]; [47]) of 250 mg/kg/day, an LOAEL (rat [19]; [47]) greater than 800 mg/kg/day and an NEL (rat [19]; [47]) of 80 mg/kg/day. It also gave an NOAEL (rat [19]; [47]) of no less than 800 mg/kg/day, an LEL (rat [19]; [48]) of 80 mg/kg/day and an LOAEL (rat [19]; [48]) of 80 mg/kg/day. The NEL (rat [19]; [48]) was less than 80 mg/kg/day and the NOAEL (rat [19]; [48]) was less than 80 mg/kg/day.
